Results published in US20260209193A1, “NOVEL INHIBITORS OF DNA DAMAGE RESPONSES FOR CANCER THERAPY” (The Regents of the University of California, priority 2022, published 2026).

Molecular target: T1, ATR (Homo sapiens, UniProt Q13535)
T1 construct: endogenous in cells; host or cells: PC3, C4-2B/MR, SUM149PT-BRCA1rev, UWB1.289+BRCA1, MDA-MB-231
Assay: ATR-mediated signaling: phosphorylation of Rad17 Ser 645 and CHK1 Ser 345 in cells
Type: cell-based
Details: 1 μM and 2 μM; PC3 and MDA-MB-231 cells
Protocol: PARP inhibitor-resistant cells are increasingly dependent on ATR for survival, and ATR inhibition disrupts restored HR and fork protection pathways in PARP inhibitor resistant BRCA-deficient cancer cells. For ATR kinase in vitro assays, ATR was immunoprecipitated with 3 μg of anti-ATR antibody (Bethyl Laboratories, A300-137A) from 1 mg of cell lysate. […] The IC50 was determined by the enzyme profiling service of Eurofins Cerep (France). […] The phosphorylation of CHK1 at Ser 345 sites was used as a bio-marker of ATR-mediated signaling pathway. The phosphorylation of Rad17 at Ser 645, which is a substrate of ATR, was also examined.
ATR inhibition was assessed in C4-2B/MR cells. Considering ATM is a homologous protein of ATR, we also detected the effect of JC046 analogs on the phosphorylation of KAP1 at Ser 824 and CHK2 at Thr 68 sites, which were used as markers of ATM signaling pathway.

T1 sequence (Q13535 whole entry): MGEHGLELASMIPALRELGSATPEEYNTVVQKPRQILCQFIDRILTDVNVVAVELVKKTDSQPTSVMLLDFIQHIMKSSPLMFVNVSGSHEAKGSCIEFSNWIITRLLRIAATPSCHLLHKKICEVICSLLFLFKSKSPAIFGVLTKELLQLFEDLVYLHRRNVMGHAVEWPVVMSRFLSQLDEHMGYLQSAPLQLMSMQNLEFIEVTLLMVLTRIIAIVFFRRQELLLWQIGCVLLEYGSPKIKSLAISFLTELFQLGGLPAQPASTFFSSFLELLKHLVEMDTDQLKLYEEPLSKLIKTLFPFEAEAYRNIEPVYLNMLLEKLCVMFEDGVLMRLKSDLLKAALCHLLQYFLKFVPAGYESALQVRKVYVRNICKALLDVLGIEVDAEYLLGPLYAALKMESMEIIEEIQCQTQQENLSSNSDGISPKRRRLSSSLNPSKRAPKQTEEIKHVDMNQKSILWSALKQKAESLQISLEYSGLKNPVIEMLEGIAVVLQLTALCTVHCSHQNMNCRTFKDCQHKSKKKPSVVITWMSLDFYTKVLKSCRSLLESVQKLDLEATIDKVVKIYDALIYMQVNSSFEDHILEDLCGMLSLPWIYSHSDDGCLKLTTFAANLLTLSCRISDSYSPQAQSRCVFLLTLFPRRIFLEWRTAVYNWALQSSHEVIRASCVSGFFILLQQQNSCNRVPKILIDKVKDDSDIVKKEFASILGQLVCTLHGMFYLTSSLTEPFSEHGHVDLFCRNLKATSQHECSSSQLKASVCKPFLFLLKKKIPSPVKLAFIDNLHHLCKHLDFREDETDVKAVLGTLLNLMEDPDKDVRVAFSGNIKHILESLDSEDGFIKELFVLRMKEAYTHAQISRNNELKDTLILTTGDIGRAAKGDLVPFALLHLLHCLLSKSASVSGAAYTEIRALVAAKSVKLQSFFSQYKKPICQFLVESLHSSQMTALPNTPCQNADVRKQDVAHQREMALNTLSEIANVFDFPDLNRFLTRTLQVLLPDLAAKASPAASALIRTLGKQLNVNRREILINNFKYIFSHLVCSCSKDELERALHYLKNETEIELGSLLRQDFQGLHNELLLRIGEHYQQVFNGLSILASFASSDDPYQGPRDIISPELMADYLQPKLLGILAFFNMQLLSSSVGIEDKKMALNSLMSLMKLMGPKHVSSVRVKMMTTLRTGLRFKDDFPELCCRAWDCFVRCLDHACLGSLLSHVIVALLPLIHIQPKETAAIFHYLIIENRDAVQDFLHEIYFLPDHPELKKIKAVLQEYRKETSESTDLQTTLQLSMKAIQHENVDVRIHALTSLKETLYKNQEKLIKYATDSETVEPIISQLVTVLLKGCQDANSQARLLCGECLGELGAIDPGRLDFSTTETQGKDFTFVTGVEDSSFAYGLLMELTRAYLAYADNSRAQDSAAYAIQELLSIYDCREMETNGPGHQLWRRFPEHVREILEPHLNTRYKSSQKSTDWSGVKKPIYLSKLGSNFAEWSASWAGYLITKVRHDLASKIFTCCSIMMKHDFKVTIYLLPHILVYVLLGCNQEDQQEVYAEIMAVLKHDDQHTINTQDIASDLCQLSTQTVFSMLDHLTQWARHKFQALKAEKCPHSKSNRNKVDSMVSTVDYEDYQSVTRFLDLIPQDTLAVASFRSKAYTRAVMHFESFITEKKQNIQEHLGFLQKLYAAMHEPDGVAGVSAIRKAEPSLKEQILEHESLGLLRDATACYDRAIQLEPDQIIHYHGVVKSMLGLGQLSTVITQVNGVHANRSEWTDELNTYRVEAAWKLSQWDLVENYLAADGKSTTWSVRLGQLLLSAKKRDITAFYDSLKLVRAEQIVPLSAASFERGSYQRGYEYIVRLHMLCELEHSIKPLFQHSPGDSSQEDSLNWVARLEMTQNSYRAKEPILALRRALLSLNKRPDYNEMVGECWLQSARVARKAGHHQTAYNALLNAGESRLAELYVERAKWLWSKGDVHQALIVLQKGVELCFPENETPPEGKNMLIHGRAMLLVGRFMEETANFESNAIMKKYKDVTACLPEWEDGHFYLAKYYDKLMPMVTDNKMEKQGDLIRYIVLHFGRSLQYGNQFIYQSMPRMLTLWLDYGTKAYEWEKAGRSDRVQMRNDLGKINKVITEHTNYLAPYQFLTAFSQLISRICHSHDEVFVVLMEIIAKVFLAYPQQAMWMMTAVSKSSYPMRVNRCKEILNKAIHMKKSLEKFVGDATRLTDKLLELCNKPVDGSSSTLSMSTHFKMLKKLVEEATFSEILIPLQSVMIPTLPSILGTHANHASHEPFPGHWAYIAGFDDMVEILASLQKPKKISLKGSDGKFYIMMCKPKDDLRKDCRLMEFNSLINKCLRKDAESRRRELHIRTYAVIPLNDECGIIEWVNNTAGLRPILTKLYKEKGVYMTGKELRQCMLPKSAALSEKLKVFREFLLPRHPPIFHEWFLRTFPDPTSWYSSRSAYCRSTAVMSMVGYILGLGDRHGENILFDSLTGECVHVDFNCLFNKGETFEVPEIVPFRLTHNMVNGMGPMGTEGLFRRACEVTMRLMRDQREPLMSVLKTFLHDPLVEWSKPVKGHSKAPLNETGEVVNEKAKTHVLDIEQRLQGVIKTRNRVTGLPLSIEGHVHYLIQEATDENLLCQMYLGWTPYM
T1 sequence (Q8WXE1 whole entry partner): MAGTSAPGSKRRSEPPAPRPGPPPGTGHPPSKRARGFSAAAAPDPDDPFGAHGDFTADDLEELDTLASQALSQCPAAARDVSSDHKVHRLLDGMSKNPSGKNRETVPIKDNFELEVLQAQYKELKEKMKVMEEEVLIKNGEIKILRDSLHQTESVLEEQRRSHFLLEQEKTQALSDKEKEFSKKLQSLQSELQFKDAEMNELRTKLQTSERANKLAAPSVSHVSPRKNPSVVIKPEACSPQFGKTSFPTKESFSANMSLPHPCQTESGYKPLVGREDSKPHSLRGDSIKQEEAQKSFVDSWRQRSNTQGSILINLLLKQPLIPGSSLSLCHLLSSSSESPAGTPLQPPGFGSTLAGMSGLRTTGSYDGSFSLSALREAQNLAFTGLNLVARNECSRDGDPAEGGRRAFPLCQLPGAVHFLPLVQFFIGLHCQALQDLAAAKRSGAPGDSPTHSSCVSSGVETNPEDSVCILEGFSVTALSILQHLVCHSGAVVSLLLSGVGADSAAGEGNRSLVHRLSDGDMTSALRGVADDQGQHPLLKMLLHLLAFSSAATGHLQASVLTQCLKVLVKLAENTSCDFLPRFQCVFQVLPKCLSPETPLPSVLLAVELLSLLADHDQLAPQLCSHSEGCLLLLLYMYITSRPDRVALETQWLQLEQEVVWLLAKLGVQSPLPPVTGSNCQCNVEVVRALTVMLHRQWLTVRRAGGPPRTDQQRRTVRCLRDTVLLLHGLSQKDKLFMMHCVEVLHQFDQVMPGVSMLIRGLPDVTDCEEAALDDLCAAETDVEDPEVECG

Olaparib induced phosphorylation of Rad17 at Ser 645 and CHK1 at Ser 345	Structure (SMILES)
inhibited	O=C(CCN1CCCC1)NC1C/C(=C\c2ccc(F)c(F)c2)C(=O)/C(=C/c2ccc(F)c(F)c2)C1 (centres unmarked) [JCS007, N-(3,5-bis((E)-3,4-difluorobenzylidene)-4-oxocyclohexyl)-3-(pyrrolidin-1-yl)propanamide]

Same assay, conditions: compared to JC099

Structure (SMILES)	ATR inhibition potency relative to JC099 (OLA- or UV-induced phosphorylation of Rad17 and CHK1)
CCN1CCC[C@@H]1CNc1ccc(C(=O)NC2C/C(=C\c3ccc(F)c(F)c3)C(=O)/C(=C/c3ccc(F)c(F)c3)C2)cc1 (stereo partly drawn) [JCS066, N-(3,5-Bis((E)-3,4-difluorobenzylidene)-4-oxocyclohexyl)-4-((((R)-1-ethylpyrrolidin-2-yl)methyl)-amino)benzamide]	greater ATR inhibition potential
O=C1/C(=C/c2ccc(F)c(F)c2)CC(NC(=O)c2cnc(NCCN3CCCC3)c([N+](=O)[O-])c2)C/C1=C\c1ccc(F)c(F)c1 (centres unmarked) [JCS092, N-(3,5-Bis((E)-3,4-difluorobenzylidene)-4-oxocyclohexyl)-5-nitro-6-((2-(pyrrolidin-1-yl)ethyl)ami-no)nicotinamide]	their potencies were close to JC099

Results, then the molecule that gave them:

ATR inhibition potency relative to JC099 (OLA- or UV-induced phosphorylation of Rad17 and CHK1)	Structure (SMILES)
their potencies were close to JC099	N#Cc1cc(NCCN2CCCC2)ccc1C(=O)NC1C/C(=C\c2ccc(F)c(F)c2)C(=O)/C(=C/c2ccc(F)c(F)c2)C1 (centres unmarked) [JCS0091]
less ATR inhibition potencies	O=C1/C(=C/c2ccc(F)c(F)c2)CC(NC(=O)c2cnc(NCCN3CCCC3)cn2)C/C1=C\c1ccc(F)c(F)c1 (centres unmarked) [JCS093, N-(3,5-Bis((E)-3,4-difluorobenzylidene)-4-oxocyclohexyl)-5-((2-(pyrrolidin-1-yl)ethyl)amino)pyr-azine-2-carboxamide]
less ATR inhibition potencies	CCN(CC)CCOc1ccc(-c2ccc(C(=O)NC3C/C(=C\c4ccc(F)c(F)c4)C(=O)/C(=C/c4ccc(F)c(F)c4)C3)cc2)cc1 (centres unmarked) [JCS095, N-(3,5-Bis((E)-3,4-difluorobenzylidene)-4-oxocyclohexyl)-4′-(2-(diethylamino)ethoxy)-[1,1′-biphenyl]-4-carboxamide]

Molecular target: T2, PARP1 (Homo sapiens, UniProt P09874)
T2 construct: endogenous in cells; host or cells: PC3
Assay: PARP1 trapping, chromatin fractionation (chromatin-bound fraction)
Type: cell-based
Details: PC3 cells
Excerpt: The trapped PARP1 forms a toxic lesion and stalls the progress of replication forks. The replication fork collapses in BRCA1/2-deficient cancer cells, and then results in cell death. […] Six cancer cell lines were used in this assay, including two breast cancer cell lines, BRCA1-mutunt SUM149PT-BRCA1mut and SUM149PT-BRCA1rev where deleterious BRCA1 mutation is reverted to form a functional BRCA1, two ovarian cancer cell lines, BRCA1-null UWB1.289 and UWB1.289+BRCA1, a stable cell line in which wild-type BRCA1 function has been restored, and two prostate cancer cell lines, enzalutamide resistant C4-2B/MR which is homologous recombination (HR)-deficient due to Rad51 mutation, and enzalutamide insensitive PC3 which is HR-proficient.

T2 sequence (P09874 whole entry, species assumed): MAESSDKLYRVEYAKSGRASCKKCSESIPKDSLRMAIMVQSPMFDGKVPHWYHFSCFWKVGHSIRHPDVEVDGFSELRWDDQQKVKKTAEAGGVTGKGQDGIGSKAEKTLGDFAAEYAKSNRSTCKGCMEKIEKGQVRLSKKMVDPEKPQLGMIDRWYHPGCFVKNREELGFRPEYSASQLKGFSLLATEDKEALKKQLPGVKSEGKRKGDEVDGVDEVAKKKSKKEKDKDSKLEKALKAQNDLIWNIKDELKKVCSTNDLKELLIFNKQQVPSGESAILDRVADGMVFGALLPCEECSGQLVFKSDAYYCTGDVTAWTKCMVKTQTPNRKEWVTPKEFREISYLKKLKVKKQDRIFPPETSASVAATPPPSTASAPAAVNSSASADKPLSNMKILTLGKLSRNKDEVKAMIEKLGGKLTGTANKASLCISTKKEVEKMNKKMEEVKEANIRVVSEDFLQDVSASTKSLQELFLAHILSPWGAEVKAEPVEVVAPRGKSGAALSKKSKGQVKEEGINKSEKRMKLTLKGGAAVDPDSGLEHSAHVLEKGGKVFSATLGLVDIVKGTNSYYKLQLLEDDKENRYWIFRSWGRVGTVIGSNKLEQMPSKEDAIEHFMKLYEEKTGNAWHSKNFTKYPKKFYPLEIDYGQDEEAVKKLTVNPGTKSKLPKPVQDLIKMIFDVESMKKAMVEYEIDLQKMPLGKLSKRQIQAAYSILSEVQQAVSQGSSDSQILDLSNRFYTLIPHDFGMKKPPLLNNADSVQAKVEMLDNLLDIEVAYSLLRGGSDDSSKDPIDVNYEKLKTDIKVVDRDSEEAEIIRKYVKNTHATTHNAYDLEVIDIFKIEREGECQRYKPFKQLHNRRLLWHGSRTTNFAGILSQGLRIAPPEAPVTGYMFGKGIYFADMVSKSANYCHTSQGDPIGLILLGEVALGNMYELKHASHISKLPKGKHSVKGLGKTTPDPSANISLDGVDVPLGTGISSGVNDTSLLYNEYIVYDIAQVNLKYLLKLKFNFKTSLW

Structure (SMILES)	PARP1-trapping potency relative to JC099 (PARP1 in the chromatin-bound fraction)
O=C1/C(=C/c2ccc(F)c(F)c2)CC(NC(=O)c2ccc(OCCN3CCCCC3)c(OCc3ccccc3)c2)C/C1=C\c1ccc(F)c(F)c1 (centres unmarked) [JCS102, 3-(Benzyloxy)-N-(3,5-bis((E)-3,4-difluorobenzylidene)-4-oxocyclohexyl)-4-(2-(piperidin-1-yl)eth-oxy)benzamide]	higher potency in PARP1-trapping
CCN(CC)CCOc1ccc(C(=O)NC2C/C(=C\c3ccc(F)c(F)c3)C(=O)/C(=C/c3ccc(F)c(F)c3)C2)nc1 (centres unmarked) [JCS131, N-(3,5-Bis((E)-3,4-difluorobenzylidene)-4-oxocyclohexyl)-5-(2-(diethylamino)ethoxy)picolinamide]	higher potency in PARP1-trapping
O=C1/C(=C/c2ccc(F)c(F)c2)CC(NC(=O)c2ccc(OCCN3CC4OCCOC4C3)cc2)C/C1=C\c1ccc(F)c(F)c1 (centres unmarked) [JCS137, N-(3,5-Bis((E)-3,4-difluorobenzylidene)-4-oxocyclohexyl)-4-(2-(hexahydro-6H-[1,4]dioxino[2,3-c]pyrrol-6-yl)ethoxy)benzamide]	their potencies were less than JC099

The next lines start with the values.

PARP1-trapping potency relative to JC099 (PARP1 in the chromatin-bound fraction)	Structure (SMILES)
higher potency in PARP1-trapping	CC(=O)c1cc(C(=O)NC2C/C(=C\c3ccc(F)c(F)c3)C(=O)/C(=C/c3ccc(F)c(F)c3)C2)ccc1OCCN1CCCCC1 (centres unmarked) [JCS103, 3-Acetyl-N-(3,5-bis((E)-3,4-difluorobenzylidene)-4-oxocyclohexyl)-4-(2-(piperidin-1-yl)ethoxy)-benzamide]
higher potency in PARP1-trapping	O=C1/C(=C/c2ccc(F)c(F)c2)CC(NC(=O)c2ccc(OCCN3CCN4CCCC4C3)cc2)C/C1=C\c1ccc(F)c(F)c1 (centres unmarked) [JCS135, N-(3,5-Bis((E)-3,4-difluorobenzylidene)-4-oxocyclohexyl)-4-(2-(hexahydropyrrolo[1,2-a]pyrazin-2(1H)-yl)ethoxy)benzamide]
